In the METLIN SMRT retention time set (Domingo-Almenara et al. 2019):

Experiment: gradient 5% acetonitrile 3 min, to 50% in 2 min, to 85% in 15 min, held 3 min, 100 µL/min
Conditions: column: Zorbax Extend-C18 2.1 x 50 mm; eluents: water / acetonitrile, 0.1% formic acid
Method in brief: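 In both positive and negative ionization mode, a quadrupole time-of-flight mass spectrometer coupled to HPLC analyzed pure standards run in mixtures of ~100 molecules. The Zorbax Extend-C18 column (2.1 × 50 mm, 1.8 μm) was operated at 100 μL/min with water and acetonitrile, each containing 0.1% formic acid. The dead volume was 40 μL and the dwell volume 900 μL. Retention time came from adduct peaks that were computationally picked and individually inspected by hand.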

Row | Compound | RP-LC retention time [s]
1 | COc1cccc(S(=O)(=O)N2CCc3c(c(-c4nnc(-c5ccccc5F)o4)nn3C)C2)c1 | 916
2 | CCOC(=O)c1cnc2nc(C)ccc2c1Nc1cc(F)ccc1F | 726
3 | O=C(Nc1ccccc1)N1CCC(N2C[C@H]3C[C@H](C2)[C@H]2CCCC(=O)N2C3)CC1 | 590
4 | CCOC(=O)c1cccc(NC(=O)Cc2csc3nc(-c4ccc(C)c(C)c4)cn23)c1 | 929
5 | CCc1cc(N2CCN(C(=O)COc3ccc(OC)cc3)CC2)nc2nnc(C)n12 | 613
6 | COc1ccc(-c2nc(-c3ccc4c(c3)oc(=O)n4C(C)C)no2)c(OC)c1 | 1080
7 | COc1ccc2c(CCN)c[nH]c2c1 | 565
8 | COc1ccc(-c2nc3cc(C)ccn3c2Nc2ccc(C)cc2)cc1 | 761
9 | CCN(CC)CCOC(=O)C(O)(c1ccccc1)c1ccccc1 | 714
10 | COC(=O)c1cccc(Nc2c(-c3cccc(Cl)c3)nc3cnccn23)c1 | 905
11 | O=C(Cn1cccc(-c2nc(-c3ccc(Br)cc3)no2)c1=O)NC1CCCC1 | 896
12 | CCS(=O)(=O)Nc1ccc(C2(C(=O)NCc3cccc(F)c3)CCCCC2)cc1 | 933
13 | CC(=O)N(Cc1nn(C)c2c1CN(S(=O)(=O)c1cc(F)ccc1F)CC2)c1ccccc1 | 800
14 | O=C(NCc1ccc(F)cc1F)c1csc(C(=O)N2CCCC2)n1 | 795
15 | Cc1ccc(NC(=O)C2CCN(S(=O)(=O)c3ccc4c(c3)sc(=O)n4C)CC2)cc1F | 933
16 | Nc1cc(Nc2ccc(Br)cc2)nc(N)n1 | 688
17 | COc1ccccc1-c1nc2cnccn2c1NCCC(=O)Nc1cc(F)ccc1F | 723
18 | Cc1ccc(CN2CCn3c(nn(CC4CC4)c3=O)C2)nc1 | 561
19 | COc1ccc(-c2c(C)noc2NC(C)=O)cc1S(=O)(=O)Nc1ccc(C#N)cc1 | 710

Row | Compound | RP-LC retention time [s]
20 | CC(NC(=O)C1CC(=O)N(c2ccc3c(c2)CCN3C(=O)C2CC2)C1)c1ccccc1 (stereo not drawn) | 740
21 | CCNS(=O)(=O)c1cccnc1Nc1cc(C)cc(C)c1 | 1060
22 | Cc1oc(-c2ccc(C(=O)N3CCCCC3)cc2)nc1CS(=O)(=O)c1ccccc1 | 843
23 | O=C(NCCN1CCOCC1)c1ccc2ccnc(N3CCN(C(=O)c4ccco4)CC3)c2c1 | 567
24 | CCN1CCCn2cc(S(=O)(=O)Nc3ccccc3)cc2C1=O | 666
25 | CCOCCCNCc1ccc(-c2ccccc2F)o1 | 672
26 | COc1ccccc1-n1c(SCC(=O)Nc2cc(C)on2)nc2c(c1=O)SCC2 | 728
27 | NC(=O)c1ccc2c(c1)CCCN2S(=O)(=O)c1ccccc1 | 726
28 | CCc1nc2cccnc2n1-c1ccc(C(=O)NC)cc1 | 659
29 | COc1ccc(NS(=O)(=O)c2cc3n(c2)CCN(CC(C)C)C3=O)cc1Cl | 828
30 | Cc1ccc(C)c(CN2CCC(F)(c3nc(-c4cnccn4)no3)CC2)c1 | 650
31 | COc1cccc(CC(=O)N2CCC3(CC2)NCc2ccccc2-n2ccnc23)c1 | 572
32 | CC(C)C(NC(=O)Nc1ccc2c(c1)OCCO2)C(=O)N1CCc2ccccc21 (stereo not drawn) | 609
33 | Cc1c(Cl)cccc1Nc1c(-c2ccc(N3CCOCC3)cc2)nc2ncccn12 | 758
34 | CSc1ccc(CNC(=O)c2cccc(-c3nc4cccnc4n3C)c2)cc1 | 759
35 | COc1cc(CNC(=O)C2CCCN(c3nccnc3Oc3ccccc3)C2)cc(OC)c1 (stereo not drawn) | 929
36 | CC(=O)Oc1ccccc1C1=NN(C(C)=O)C(c2cccc(Br)c2)O1 (stereo not drawn) | 1040
37 | CCCNC(=O)C1CCN(c2ccc(SCC(=O)NCCc3ccc(Cl)cc3)nn2)CC1 | 663
38 | CC(C)c1ccc(-c2nc(-c3cccc(-c4ccnn4C)c3)no2)cc1 | 1390

Second part, the compound after the results:

Row | RP-LC retention time [s] | Compound
39 | 1090 | CCc1nc(-c2csc(S(=O)(=O)N3CCCC(C(=O)Nc4cc(F)ccc4F)C3)c2)no1 (stereo not drawn)
40 | 743 | Cc1nc2cc(N3CC(C(=O)NCc4ccc(Cl)cc4)CC3=O)ccc2o1 (stereo not drawn)
41 | 621 | O=C1CC(NC(=O)C2(c3ccccc3)CCOCC2)CN1C1CC1 (stereo not drawn)
42 | 1090 | O=S(=O)(c1ccc(-c2noc(COc3ccc(Cl)cc3)n2)cc1)N1CCOCC1
43 | 729 | COc1ccc(N2CCN(C(=O)C3CC(=O)N(CCc4ccccc4)C3)CC2)cc1 (stereo not drawn)
44 | 714 | COc1ccc(-c2c(C)noc2NC(C)=O)cc1S(=O)(=O)NCc1ccc(C)o1
45 | 652 | O=C(c1cn2ccccc2n1)N1CCN(c2ccc(F)cc2)CC1
46 | 930 | Cc1cccc(NC(=O)CN2C(=O)CCc3cc(S(=O)(=O)N4CCCCC4C)ccc32)c1C (stereo not drawn)
47 | 684 | COc1cc(-c2nc3c(C)cccn3c2Nc2ccc(C)cc2)ccc1O
48 | 653 | CCOCCCNC(=O)N1CCN(Cc2nc3cccnc3n2-c2cc(C)cc(C)c2)CC1
49 | 849 | CC(=O)Nc1c(-c2ccccn2)nsc1C(=O)N1CCC(C)CC1
50 | 721 | O=C(Cn1cnc2nc(N3CCCC(C(=O)NC4CC4)C3)sc2c1=O)Nc1ccc(Cl)cc1 (stereo not drawn)
51 | 837 | Cc1noc(/C=C\c2ccc(S(=O)(=O)N3CCCC3)cc2)c1NC(=O)C1CC1
52 | 1110 | Cc1ccc(NC(=O)CSc2nccc(N3CCN(c4cc(C)ccc4C)CC3)n2)c(F)c1
53 | 890 | O=C(NCCC1CCN(S(=O)(=O)c2ccc(F)cc2)CC1)NC1CCCCC1
54 | 804 | O=C(NC1CC1)c1ccc(OCC2CCN(C(=O)c3ccc(F)cc3F)CC2)cc1
55 | 584 | CN(C)CC1CCC2=C(C1=O)C(c1ccc(Cl)c(Cl)c1)C1=C(CCC(CN(C)C)C1=O)O2 (stereo not drawn)
56 | 1180 | COc1ccc(-c2csc3c(=O)n(CC(=O)OC(C)(C)C)cnc23)cc1
57 | 1010 | Cc1ccccc1CN1N=C(C(=O)N2CCCCC2)S(=O)(=O)c2ccccc21
58 | 597 | CCN(C1CCOCC1)C1CN(S(=O)(=O)c2cccc(F)c2)C1
59 | 587 | CCn1cc(CCN2CCC(C(=O)N3CCCCC3)CC2)c2cccnc21
60 | 718 | COCCCNC(=O)C1CCN(Cc2cc3ccccc3n2Cc2ccccc2C)CC1
61 | 628 | O=C(Nc1ccc2c(c1)OCO2)N(Cc1ccccn1)Cc1ccco1
62 | 577 | CCN1CCN(CCCNc2nc(-c3ccc(Cl)cc3)nc3ccccc23)CC1
63 | 1070 | Cc1nn(-c2ccccc2)c(C)c1S(=O)(=O)N1CCC(C(=O)Nc2ccc(Cl)cc2F)CC1

Row | RP-LC retention time [s] | Compound
64 | 638 | O=C1Nc2cc(C(=O)N3CCN(c4ccc(Cl)cc4)CC3)ccc2N2CCCCC12 (stereo not drawn)
65 | 694 | c1coc(-c2nnc(Nc3nc4cc5c(cc4s3)OCO5)o2)c1
66 | 655 | CCCN1C(=O)C(CC(=O)N(C)C)Sc2ncccc21 (stereo not drawn)
67 | 669 | CC(=O)Nc1ccc(CCc2nc3ccc(C(=O)NCCC4=CCCCC4)cc3[nH]2)cc1
68 | 614 | CCOC(=O)C1CCN(Cc2nnn(-c3ccccc3)c2C)CC1
69 | 923 | CCOc1ccc(OCC)c(N2C=C(C#N)S(=O)(=O)c3c(F)cccc32)c1
70 | 889 | CCN1C(=O)C(C)(C)COc2ccc(NC(=O)Cc3ccc(F)cc3)cc21
71 | 963 | Fc1ccc(Nc2c(-c3ccc(Cl)cc3)nc3cnccn23)cc1
72 | 1240 | Cc1cc(C)cc(-c2nnc(Cc3nc(-c4cccc(Br)c4)no3)o2)c1
73 | 903 | c1cc(-c2noc(-c3cccs3)n2)cc(-c2ccn[nH]2)c1
74 | 721 | CN1C(=O)CCC2(CNC(=O)Nc3ccccc3)CCC=C12 (stereo not drawn)
75 | 766 | COCCN1C(=O)CCc2cc(NC(=O)Cc3ccccc3C)ccc21
76 | 719 | O=C(O)c1ccc(NC(=O)c2ccc([N+](=O)[O-])cc2Cl)cc1
77 | 933 | CCCCc1cc(=O)oc2cc(C)cc(OCC(=O)N3CCC4(O)CCCCC4C3)c12 (stereo not drawn)
78 | 954 | Cc1ccc2c(c1)N(S(C)(=O)=O)CCC(C(=O)NCc1ccc(Cl)cc1)O2 (stereo not drawn)
79 | 662 | Cc1cnc(C(=O)N[C@@H]2CCC[C@@H]2C(=O)NCc2ccc3c(c2)OCO3)cn1
80 | 784 | CCn1cc(-c2nc(C)c(C(=O)Nc3ccc(C)cc3)s2)c2cccnc21
81 | 922 | CC1Oc2ccc(-c3csc(NC(=O)C4CCCCC4)n3)cc2NC1=O (stereo not drawn)
82 | 645 | NC(=O)C1CCN(C(=O)c2snc(-c3ccccn3)c2N)CC1
83 | 982 | CCCNC(=O)Cn1cc(C(=O)Nc2cc(C)cc(C)c2)c(=O)c2ccc(C)nc21
84 | 860 | CC(C)Sc1ccc(CC(=O)NCC2CCN(C(=O)Nc3ccc(F)cc3)CC2)cc1
85 | 1020 | COc1ccc(-c2noc(C3CCCN3C(=O)Nc3cc(C)ccc3C)n2)cc1 (stereo not drawn)
86 | 899 | COc1cccc(N2CCN(C3=Nc4c(F)cccc4[C@H](CC(=O)O)N3c3cc(C(F)(F)F)ccc3OC)CC2)c1
87 | 927 | Cc1cccc(NC(=O)N(C)CCc2noc(COc3ccccc3)n2)c1
88 | 770 | O=C(CCc1c[nH]c2ccccc12)N1CCOc2ccc(N3CCOCC3)cc2C1
